For assay [1], the system named is MDA-MB-231. In words: Antiproliferative activity against human MDA-MB-231 cells at 10 uM after 48 hrs by MTT assay relative to control. The following applies: MDA-MB-231, 48 h. Type of assay: functional. (Tetrazolium dyes change colour on reduction, which living cells bring about.)
Assay [2] has as its system MDA-MB-231. In words: Antiproliferative activity against human MDA-MB-231 cells after 48 hrs by MTT assay. The following applies: MDA-MB-231, 48 h. Type of assay: functional, cell-based.
The subject of the next assay is 4T1. In words: Antiproliferative activity against mouse 4T1 cells after 48 hrs by MTT assay. Type of assay: functional, cell-based. As to conditions: 4T1, 48 h.
For assay [3], the target named is T1, DNA ligase 1 (Homo sapiens, UniProt P18858). In words: Inhibition of human DNA ligase 1 using nicked DNA as substrate after 30 mins relative to control.
T1 sequence (P18858 whole entry): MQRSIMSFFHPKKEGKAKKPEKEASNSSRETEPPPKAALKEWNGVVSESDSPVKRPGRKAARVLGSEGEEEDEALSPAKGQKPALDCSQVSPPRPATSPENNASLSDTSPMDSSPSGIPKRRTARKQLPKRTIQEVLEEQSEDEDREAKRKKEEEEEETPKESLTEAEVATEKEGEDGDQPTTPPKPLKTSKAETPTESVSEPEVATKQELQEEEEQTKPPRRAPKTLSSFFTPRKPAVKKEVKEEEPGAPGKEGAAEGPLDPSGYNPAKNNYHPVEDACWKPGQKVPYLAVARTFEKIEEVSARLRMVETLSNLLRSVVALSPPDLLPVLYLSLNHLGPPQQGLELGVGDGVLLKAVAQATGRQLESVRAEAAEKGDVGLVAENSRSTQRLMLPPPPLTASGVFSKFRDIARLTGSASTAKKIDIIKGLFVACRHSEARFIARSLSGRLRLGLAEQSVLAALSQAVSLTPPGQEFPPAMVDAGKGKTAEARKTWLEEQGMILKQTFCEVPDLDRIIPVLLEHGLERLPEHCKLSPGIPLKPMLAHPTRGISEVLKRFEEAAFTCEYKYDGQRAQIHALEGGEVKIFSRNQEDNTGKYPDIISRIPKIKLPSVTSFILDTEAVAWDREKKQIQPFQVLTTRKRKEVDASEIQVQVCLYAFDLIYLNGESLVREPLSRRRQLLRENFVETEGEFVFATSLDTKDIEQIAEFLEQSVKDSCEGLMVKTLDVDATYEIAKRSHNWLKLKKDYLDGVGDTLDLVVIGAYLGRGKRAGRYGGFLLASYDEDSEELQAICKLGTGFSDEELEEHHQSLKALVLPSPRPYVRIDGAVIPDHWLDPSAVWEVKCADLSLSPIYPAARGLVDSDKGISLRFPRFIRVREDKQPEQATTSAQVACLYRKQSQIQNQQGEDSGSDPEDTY
The target in assay [4] is T1, DNA ligase 1. In words: Inhibition of human DNA ligase 1 at 25 uM using nicked DNA as substrate after 30 mins relative to control.
Assay [5] concerns the target T1, DNA ligase 1. In words: Inhibition of human DNA ligase 1 at 100 uM using nicked DNA as substrate by high-throughput fluorescence energy transfer-based DNA joining assay relative to control.
Another assay concerns HCT-116. In words: Antiproliferative activity against human HCT116 cells relative to control. Type of assay: functional.
Assay [6] has as its target T1, DNA ligase 1. In words: Competitive inhibition of human DNA ligase 1 using nicked DNA as substrate by high-throughput fluorescence energy transfer-based DNA joining assay.
The target of another assay is T2, DNA ligase 3 (Homo sapiens, UniProt P49916).
T2 sequence (P49916 whole entry): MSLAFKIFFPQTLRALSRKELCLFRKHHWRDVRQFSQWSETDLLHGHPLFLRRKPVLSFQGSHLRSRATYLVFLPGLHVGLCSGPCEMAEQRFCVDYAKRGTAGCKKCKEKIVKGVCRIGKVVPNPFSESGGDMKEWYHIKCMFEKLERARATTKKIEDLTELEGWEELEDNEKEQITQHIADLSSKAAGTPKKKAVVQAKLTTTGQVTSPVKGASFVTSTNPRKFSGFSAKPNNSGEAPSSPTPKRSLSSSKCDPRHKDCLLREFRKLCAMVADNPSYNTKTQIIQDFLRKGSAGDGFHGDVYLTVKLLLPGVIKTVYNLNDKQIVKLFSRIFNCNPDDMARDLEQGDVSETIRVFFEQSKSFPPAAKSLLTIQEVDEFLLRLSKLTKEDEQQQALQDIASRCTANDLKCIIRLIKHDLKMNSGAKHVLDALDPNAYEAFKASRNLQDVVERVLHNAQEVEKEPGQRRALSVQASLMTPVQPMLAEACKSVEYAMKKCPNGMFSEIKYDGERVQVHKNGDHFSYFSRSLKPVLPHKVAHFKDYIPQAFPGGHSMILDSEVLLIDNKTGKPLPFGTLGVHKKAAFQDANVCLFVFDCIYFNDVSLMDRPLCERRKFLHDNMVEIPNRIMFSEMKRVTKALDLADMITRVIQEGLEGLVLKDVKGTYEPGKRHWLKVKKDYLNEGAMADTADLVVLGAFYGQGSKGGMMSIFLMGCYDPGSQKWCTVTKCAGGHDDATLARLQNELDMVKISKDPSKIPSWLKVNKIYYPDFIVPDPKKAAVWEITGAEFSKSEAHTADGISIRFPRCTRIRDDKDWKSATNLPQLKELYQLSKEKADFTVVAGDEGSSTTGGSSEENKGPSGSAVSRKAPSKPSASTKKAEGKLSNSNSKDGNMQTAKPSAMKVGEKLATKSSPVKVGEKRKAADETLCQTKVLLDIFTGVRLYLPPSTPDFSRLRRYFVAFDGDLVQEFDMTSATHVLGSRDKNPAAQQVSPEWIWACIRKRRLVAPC
In words: Competitive inhibition of human DNA ligase 3 using nicked DNA as substrate by high-throughput fluorescence energy transfer-based DNA joining assay.

In assay [7] the target is T1, DNA ligase 1. In words: Inhibition of human DNA ligase 1 using 52-mer DNA/25-mer DNA/27-mer DNA as substrate.
The target in assay [8] is T1, DNA ligase 1. In words: Inhibition of human DNA ligase 1.
In assay [9] the target is T1, DNA ligase 1. In words: Inhibition of human DNA ligase 1 at 50 uM using 52-mer DNA/25-mer DNA/27-mer DNA as substrate by fluorescence assay relative to control.
Another assay has as its system DLD-1. In words: Antiproliferative activity against human DLD1 cells after 48 hrs by MTT assay. The following applies: DLD-1, 48 h. Type of assay: functional, cell-based.
For another assay, the system named is HepG2. In words: Antiproliferative activity against human HepG2 cells after 48 hrs by MTT assay. Type of assay: functional, cell-based. As to conditions: HepG2, 48 h.
Another assay relates to HEK293. In words: Cytotoxicity against HEK293 cells after 48 hrs by MTT assay. Type of assay: cell-based. As to conditions: Homo sapiens, HEK293, 48 h.
Assay [10] can be described thus: Antiproliferative activity against human 46BR.1G1 cells after 48 hrs by MTT assay. Type of assay: functional, cell-based.
The next assay addresses T3, DNA ligase 4 (Homo sapiens, UniProt P49917).
T3 sequence (P49917 whole entry): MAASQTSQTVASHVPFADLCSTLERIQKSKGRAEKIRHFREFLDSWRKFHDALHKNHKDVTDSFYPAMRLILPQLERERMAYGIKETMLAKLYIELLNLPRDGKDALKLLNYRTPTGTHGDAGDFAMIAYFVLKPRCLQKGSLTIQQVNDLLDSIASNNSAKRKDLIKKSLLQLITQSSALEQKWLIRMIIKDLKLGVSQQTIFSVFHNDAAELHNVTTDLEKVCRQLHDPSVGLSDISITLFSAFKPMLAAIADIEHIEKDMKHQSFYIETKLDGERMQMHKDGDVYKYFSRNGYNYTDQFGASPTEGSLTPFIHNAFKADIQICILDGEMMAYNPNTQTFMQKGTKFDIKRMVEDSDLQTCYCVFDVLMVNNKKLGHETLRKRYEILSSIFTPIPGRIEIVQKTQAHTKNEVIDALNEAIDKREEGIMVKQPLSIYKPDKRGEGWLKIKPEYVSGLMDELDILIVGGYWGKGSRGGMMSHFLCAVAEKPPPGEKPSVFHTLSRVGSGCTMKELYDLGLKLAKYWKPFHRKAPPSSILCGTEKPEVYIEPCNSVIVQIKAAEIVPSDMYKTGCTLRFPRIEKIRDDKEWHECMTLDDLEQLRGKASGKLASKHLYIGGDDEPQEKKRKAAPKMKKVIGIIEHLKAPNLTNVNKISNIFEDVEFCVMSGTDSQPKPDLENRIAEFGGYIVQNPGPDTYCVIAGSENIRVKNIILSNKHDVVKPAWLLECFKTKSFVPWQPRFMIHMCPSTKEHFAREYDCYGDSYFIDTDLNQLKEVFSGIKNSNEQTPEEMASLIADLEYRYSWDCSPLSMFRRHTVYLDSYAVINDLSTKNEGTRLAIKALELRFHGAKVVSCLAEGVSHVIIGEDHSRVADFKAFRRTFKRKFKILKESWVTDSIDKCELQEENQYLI
In words: Competitive inhibition of human DNA ligase 4 using nicked DNA as substrate by high-throughput fluorescence energy transfer-based DNA joining assay.

The target of assay [11] is T1, DNA ligase 1. In words: Uncompetitive inhibition of human DNA ligase 1 using nicked DNA as substrate by high-throughput fluorescence energy transfer-based DNA joining assay.

The term inhibition denotes the share of the control response that was lost under treatment. One may read the IC50 as the concentration needed to halve the response being measured. As to `COc1cc(/C=C/c2cc(=O)oc3c2ccc2ccccc23)cc(OC)c1`, in the assay on MDA-MB-231 [1], the inhibition at 10 µM is above 50%. In addition, the IC50 in the assay with MDA-MB-231 [2] was determined as 12.8 µM; in the assay on 4T1, 11.6 µM. For the same molecule, the inhibition on DNA ligase 1 [3] is 99.3%; on DNA ligase 1 [4], below 50%.

In turn, `Cc1c(Br)cc(NCC(=O)N/N=C/c2cc([N+](=O)[O-])ccc2O)cc1Br` registered an inhibition against DNA ligase 1 [5] of 78.3%. This molecule returned an Activity in the assay with HCT-116 of 70%. Besides, the IC50 at DNA ligase 1 [6] and on DNA ligase 3 was 10 µM in each case.

For the molecule `COc1cc(/C=C/c2cc(=O)oc3c2ccc2c(OC)cccc23)cc(OC)c1`, in the assay on MDA-MB-231 [1], the inhibition at 10 µM is above 50%. This molecule registered an inhibition at DNA ligase 1 [4] below 50%.

In turn, `O=C1c2cc(Cl)ccc2NC(c2ccc(Br)cc2)c2cccn21` (stereo not given) yielded an IC50 on DNA ligase 1 [7] of 23.1 µM.

Molecule `N[C@H](CO)Cc1cc(I)c(Oc2ccc(O)cc2)c(I)c1` showed an IC50 at DNA ligase 1 [8] of 1 µM.

At DNA ligase 1 [9], `O=[N+]([O-])c1ccc(N/N=C(/c2ccc(O)cc2)c2cccc3ccccc23)c([N+](=O)[O-])c1` displayed an inhibition of 93.1%. For the same molecule, the IC50 in the assay with DLD-1 is 6.78 µM; in the assay on HepG2, 6.93 µM; in the assay with MDA-MB-231 [2], 7.02 µM; with HEK293 it was 12.6 µM; in assay [10], above 25 µM.

In the case of `Nc1nc(S)nc(O)c1/N=C/c1ccccc1`, the inhibition at DNA ligase 1 [5] is 68.8%. In the assay with HCT-116, the Activity is 70%. The IC50 at DNA ligase 1 [6] is 5 µM; on DNA ligase 3, 9 µM; at DNA ligase 4, 5 µM.

As for `O=c1[nH]ncc(N/N=C/c2ccc(O)c([N+](=O)[O-])c2)c1Cl`, the inhibition against DNA ligase 1 [5] was 59.8%. In the assay with HCT-116, the Activity is 70%. The molecule further registered a half-maximal inhibitory concentration (IC50) on DNA ligase 1 [11] of 12 µM.

`COc1cccc(OC)c1/C=C/c1cc(=O)oc2c1ccc1ccccc12` yielded an inhibition at 10 µM with MDA-MB-231 [1] above 50%. On DNA ligase 1 [4], this molecule registered an inhibition below 50%.

Molecule `O=C1c2cc(Cl)ccc2NC(c2ccc(Cl)c(Cl)c2)c2cccn21` (stereo not given) came in with a half-inhibitory concentration (IC50) against DNA ligase 1 [7] of 15.8 µM.
